Measurements published in patent US20250161286A1 (AEVIS BIO, INC., priority 2022, published 2025).

Assays:
iNOS and COX-2 [1] = experiment: iNOS and COX-2 mRNA expression in LPS-stimulated BV-2 cells (real-time PCR); assay type: cell-based, mouse; conditions: BV-2 cells, 3.33, 10 or 30 μM, 1 μg/mL LPS, 6 hours
Protocol: (§1) Finally, to determine the mRNA expression levels of iNOS and COX-2, BV-2 was seeded in a 6-well plate (Corning, MD, USA) at 5×10^5 cells/well, and cultured using a DMEM medium (Corning, MD, USA) containing 10% fetal bovine serum (Corning, MD, USA) and 100 U/ml of penicillin/streptomycin (Corning, MD, USA) at 37° C. in a 5% CO2 incubator for one day for stabilization. […] 1 μg/mL of LPS (Sigma, USA) was added to all experimental groups excluding the non-inflammation-induced group and allowed to react at 37° C. in a 5% CO2 incubator for 6 hours.
The drug-treated BV-2 underwent RNA prep according to the kit manual using an RNA prep kit (Monarch Total RNA Miniprep kit, NEB, UK), and the concentration was measured using a nanophotometer (NP80, Implen, Germany). […]
The expression level of each oxidative stress-associated gene in the synthesized cDNA was analyzed and compared using Real-Time PCR (StepOne™ Bioscience, USA) equipment. […] The CT value for the gene of each sample obtained through real-time PCR was normalized by the value of the internal control gene (GAPDH) of each sample, the expression level was estimated inversely by 2ΔΔCT calculation, and the resulting value of each group was quantified and expressed as a percentage relative to the LPS-only treatment group.

iNOS and COX-2 [2] = experiment: iNOS and COX-2 protein expression in LPS-stimulated BV-2 cells (immunoblotting); assay type: cell-based, mouse; conditions: BV-2 cells, 3.33, 10 or 30 μM, 1 μg/mL LPS, 24 hours
Protocol: To further confirm the oxidative stress suppression effect, the content of nitrite released due to an inflammatory response and the expression levels of iNOS, which is an enzyme that produces nitric oxide, and COX-2, which is cyclooxygenase-2, were determined in mouse microglial cells (BV-2, ATCC, Manassas, VA, USA).
as §1, with “To” for “Finally, to”, “content of nitrite and the protein” for “mRNA”, “12-well” for “6-well”, “1.5×10^5” for “5×10^5”, “24” for “6”
The cells from which the cell culture solution was harvested were disrupted by adding a RIPA buffer containing a protease inhibitor cocktail (Thermo Fisher Scientific), and centrifuged at 14,000 rpm for 15 minutes at 4° C. to obtain a cell extract. Equal amounts of the cell extract were loaded, and proteins were separated through SDS-PAGE and then transferred to a PVDF membrane. […]

cereblon (CRBN) = cereblon (CRBN) (Homo sapiens, UniProt Q96SW2); experiment: In vitro CRBN binding assay (AlphaScreen, competitive inhibition of the PROTAC assay)
iNOS and COX-2 [3] = experiment: iNOS and COX-2 expression in LPS-stimulated RAW264.7 cells (immunoblotting); assay type: cell-based, mouse; conditions: RAW264.7 cells, 3.33, 10 or 30 μM, 60 ng/ml LPS, 24 hours
Protocol: To confirm an oxidative stress suppression effect, the expression levels of iNOS and COX-2 were confirmed.
To this end, the RAW264.7 cell line, which is a mouse macrophage cell line, was purchased from the Korea Cell Line Bank (KCLB, Korea) and used, and cultured in a DMEM medium (Corning, MD, USA) supplemented with 10% fetal bovine serum (Corning, MD, USA), 100 U/ml of penicillin (Corning, MD, USA), and 100 μg/ml of streptomycin (Corning, MD, USA) at 37° C. in a 5% CO2 incubator.
After 1 hour, the cells were stimulated by treatment with 60 ng/ml of LPS, and further cultured for 24 hours. The cells were disrupted by adding a RIPA buffer containing a protease inhibitor cocktail (Thermo Fisher Scientific) and centrifuged at 14,000 rpm for 15 minutes at 4° C. to obtain a cell extract. Equal amounts of the cell extract were loaded, and proteins were separated through SDS-PAGE and then transferred to a PVDF film. The protein-transferred membrane was blocked using skim milk, incubated with a primary antibody for 3 hours at room temperature, and then incubated with an HRP-conjugated secondary antibody for 1 hour at room temperature. The resulting product was washed with TBS-T three times between steps. […]

IC50 (cereblon (CRBN)): 0.19 µM
Compound: Nc1cccc2c1C(=S)N(C1CCC(=O)NC1=O)C2=O (stereo not shown) [3-MP, 3-thiopomalidomide]
mRNA expression of oxidative stress-associated gene (iNOS, COX-2) (iNOS and COX-2 [1]): effectively inhibit the mRNA expression of an oxidative stress-associated gene | expression of oxidative stress-associated proteins (iNOS and COX-2) (iNOS and COX-2 [2]): effectively reduced | expression of iNOS and COX-2 (protein) (iNOS and COX-2 [3]): inhibit the expression of iNOS and COX-2
